From patent publication US20230265151A1, “GIP/GLP1 CO-AGONIST COMPOUNDS” (priority 2020, published 2023)
Like-named read-outs stand apart in the source and are kept apart here.

Key:
[1] = molecular target: T1, human Gcg receptor (hGcgR) (Homo sapiens, UniProt P47871); assay: [125I]-Glucagon binding, SPA with membranes of HEK293 cells expressing hGcgR; details: human GcgR; geometric mean (SEM, n); read-out: Binding Affinity Ki, nM (SEM, n) hGCGR
T1 construct: expressed in transfected cells; crude membranes
T1 sequence (P47871 26-477): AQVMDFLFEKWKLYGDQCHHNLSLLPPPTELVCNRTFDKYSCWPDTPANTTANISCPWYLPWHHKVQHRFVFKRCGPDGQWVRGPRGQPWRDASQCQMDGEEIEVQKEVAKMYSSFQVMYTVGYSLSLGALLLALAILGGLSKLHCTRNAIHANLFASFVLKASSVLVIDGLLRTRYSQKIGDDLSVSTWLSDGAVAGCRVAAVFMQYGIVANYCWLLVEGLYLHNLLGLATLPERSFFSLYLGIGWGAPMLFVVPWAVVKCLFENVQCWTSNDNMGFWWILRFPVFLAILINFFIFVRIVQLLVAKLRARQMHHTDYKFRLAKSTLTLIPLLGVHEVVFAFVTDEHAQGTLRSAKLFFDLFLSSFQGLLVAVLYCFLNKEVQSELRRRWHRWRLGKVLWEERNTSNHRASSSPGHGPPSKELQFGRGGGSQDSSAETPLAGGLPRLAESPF
Description: Two methods are used for the preparation of crude cell membranes.
Method 1: Frozen cell pellets are lysed on ice in hypotonic buffer containing 50 mM Tris HCl, pH 7.5, and Roche Complete™ Protease Inhibitors with EDTA. […] The homogenate is centrifuged at 4° C. at 1100 × g for 10 minutes. The supernatant is collected and stored on ice while the pellets are resuspended in homogenization buffer and rehomogenized as described above. The homogenate is centrifuged at 1100 × g for 10 minutes. The second supernatant is combined with the first supernatant and centrifuged at 35000 × g for 1 hour at 4° C. The resulting membrane pellet is resuspended in homogenization buffer containing protease inhibitors at approximately 1 to 3 mg/mL, quick frozen in liquid nitrogen and stored as aliquots in a -80° C. freezer until use.
The homogenate is centrifuged at 4° C. at 1800 × g for 15 minutes. The supernatant is collected and stored on ice while the pellets are resuspended in homogenization buffer (without DNAse I) and rehomogenized as described above. The homogenate is centrifuged at 1800 × g for 15 minutes. The second supernatant is combined with the first supernatant and centrifuged an additional time at 1800 × g for 15 minutes. The overall supernatant is then centrifuged at 25000 × g for 30 minutes at 4° C. The resulting membrane pellet is resuspended in homogenization buffer (without DNAse I) containing protease inhibitors at approximately 1 to 3 mg/mL and stored as aliquots in a -80° C. freezer until use.
The human Gcg receptor binding assays are performed using a Scintillation Proximity Assay (SPA) format with wheat germ agglutinin (WGA) beads (Perkin Elmer). The binding buffer contains 25 mM 4-(2-hydroxyethyl)-1-piperazineethanesulfonic acid (HEPES), pH 7.4, 2.5 mM CaCl2, 1 mM MgCh, 0.1% (w/v) bacitracin (Research Products), 0.003% (w/v) Polyoxyethylenesorbitan monolaurate (TWEEN®-20), and Roche Complete™ Protease Inhibitors without EDTA. […] Next, 5 µL serially diluted compound or DMSO is transferred into Corning® 3632 clear bottom assay plates containing 45 µL assay binding buffer or unlabeled Gcg control (non-specific binding or NSB, at 1 µM final). […] Plates are sealed and mixed on a plate shaker (setting 6) for 1 minute and read with a PerkinElmer Trilux MicroBeta® scintillation counter after 12 hours of incubation/settling time at room temperature.
Raw CPM data for concentration curves of peptides, Gcg, GLP-1, or GIP are converted to percent inhibition by subtracting nonspecific binding (binding in the presence of excess unlabeled Gcg, GLP-1, or GIP, respectively) from the individual CPM values and dividing by the total binding signal, also corrected by subtracting nonspecific binding. Data are analyzed using four-parameter (curve maximum, curve minimum, IC50, Hill slope) nonlinear regression routines (Genedata Screener, version 12.0.4, Genedata AG, Basal, Switzerland). […] Values for Ki are reported as the geometric mean, with error expressed as the standard error of the mean (SEM) and n is equal to the number of independent replicates (determined in assays performed on different days). Geometric Means are calculated as follows: […]
The Ki Ratio (Ki for native control peptide/Ki for test compound) at each receptor and each species is calculated. The Ki Ratio is a rapid indication of the apparent affinity of a peptide compared to the native control peptide.
n=⅟x means that only one value out of the total number of replicates (x) is used to express the mean. SEM is only calculated when n=2 or greater non-qualified results exist. Means are expressed as GeoMetric means with the standard error of the mean (SEM) and the number of replicates (n) indicated in parenthesis.

[2] = molecular target: T2, hGIPR (Homo sapiens, UniProt P48546); assay: Functional cAMP formation (HTRF) in HEK-293 clonal cells expressing hGIPR, 0.1% bovine casein, without or with 1.0% human serum albumin; format: cell-based; details: for EC50: geometric mean, read-out: hGIPR EC50, nM (SEM, n); for Emax: read-out: hGIPR Emax, % ± SEM
T2 construct: expressed in transfected cells
T2 sequence (P48546 22-466): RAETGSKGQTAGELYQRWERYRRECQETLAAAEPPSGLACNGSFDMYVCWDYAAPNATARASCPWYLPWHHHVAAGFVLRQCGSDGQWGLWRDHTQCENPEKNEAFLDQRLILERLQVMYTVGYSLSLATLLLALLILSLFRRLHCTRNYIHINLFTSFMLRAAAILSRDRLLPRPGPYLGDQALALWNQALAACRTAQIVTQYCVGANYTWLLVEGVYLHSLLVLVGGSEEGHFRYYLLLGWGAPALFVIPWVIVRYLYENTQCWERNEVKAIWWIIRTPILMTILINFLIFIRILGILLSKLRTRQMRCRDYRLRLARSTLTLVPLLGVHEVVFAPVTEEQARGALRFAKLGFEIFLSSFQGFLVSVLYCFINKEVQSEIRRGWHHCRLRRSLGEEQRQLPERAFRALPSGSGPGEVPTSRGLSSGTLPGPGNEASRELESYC
Outline: (§1)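 Readings of the HTRF 665/620 nm ratio, which falls as cAMP rises, were converted to nM cAMP using a standard curve after 30 min peptide exposure at 37° C.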

[3] = molecular target: T3, hGCGR (Homo sapiens, UniProt P47871); assay: Functional cAMP formation (HTRF) in HEK-293 clonal cells expressing hGCGR, 0.1% bovine casein, without or with 1.0% human serum albumin; format: cell-based; details: geometric mean, read-out: hGCGR EC50, nM (SEM, n)
T3 construct: expressed in transfected cells
T3 sequence (P47871 26-477): as the sequence (P47871 26-477) above
Outline: as §1

[4] = molecular target: hGLP-1R (Homo sapiens, UniProt P43220); assay: Functional cAMP formation (HTRF) in HEK-293 clonal cells expressing hGLP-1R, 0.1% bovine casein, without or with 1.0% human serum albumin; format: cell-based; design: expressed in transfected cells; details: 37° C.; for EC50: 0.1% bovine casein and 1.0% human serum albumin, geometric mean, read-out: hGLP-1R EC50, nM (SEM, n); for Emax: read-out: hGLP-1R Emax, % ± SEM
Chain of hGLP-1R (P43220 24-463): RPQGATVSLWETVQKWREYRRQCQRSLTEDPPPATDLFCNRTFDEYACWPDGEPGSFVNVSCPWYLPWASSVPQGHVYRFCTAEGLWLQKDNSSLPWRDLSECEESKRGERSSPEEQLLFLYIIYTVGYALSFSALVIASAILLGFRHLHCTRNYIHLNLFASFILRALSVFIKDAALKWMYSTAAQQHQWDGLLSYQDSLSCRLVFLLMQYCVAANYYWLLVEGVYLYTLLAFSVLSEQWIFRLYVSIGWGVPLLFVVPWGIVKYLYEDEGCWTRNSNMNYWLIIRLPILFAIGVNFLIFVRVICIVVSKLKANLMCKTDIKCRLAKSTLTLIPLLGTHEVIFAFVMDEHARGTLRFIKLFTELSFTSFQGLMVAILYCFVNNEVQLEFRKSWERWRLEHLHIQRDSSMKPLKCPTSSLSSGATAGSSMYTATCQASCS
Outline: as §1

[5] = 0.1% bovine casein and 1.0% human serum albumin, 37° C.
[6] = HEK293, 0.1% bovine casein and 1.0% human serum albumin, 37° C., percent of maximal response to GIP(1-42)NH2
[7] = HEK293, percent of maximal response to GIP(1-42)NH2, 37° C., 0.1% bovine casein, arithmetic mean
[8] = cAMP, incubated at 37° C., 0.1% bovine casein (no human serum albumin)
[9] = HEK293, 0.1% bovine casein and 1.0% human serum albumin, percent of maximal response to GLP-1(7-36)NH2

SMILES	Ki [1]	EC50 [2, 5]	Emax [2, 6]	Emax [2, 7]	EC50 [2, 8]	EC50 [3, 5]	EC50 [3, 8]	EC50 [4]	Emax [4, 9]	Emax ([4]; HEK293, percent of maximal response to GLP-1(7-36)NH2, 0.1% bovine casein, arithmetic mean)
CC[C@H](C)[C@H](NC(=O)[C@H](CC(C)C)NC(=O)[C@](C)(Cc1ccc(O)cc1)NC(=O)[C@@H](CCC(=O)O)NC(=O)[C@@H](NC(=O)[C@H](Cc1ccccc1)NC(=O)[C@H](CCC(=O)O)NC(=O)C(C)(C)NC(=O)[C@H](CCC(N)=O)NC(=O)[C@H](C)NC(=O)[C@H](CCCCNC(=O)COCCOCCNC(=O)COCCOCCNC(=O)CC[C@H](NC(=O)CCCCCCCCCCCCC(=O)O)C(=O)O)NC(=O)[C@H](CCCN)NC(=O)[C@H](CC(=O)O)NC(=O)[C@H](CC(C)C)NC(=O)[C@](C)(CC(C)C)NC(=O)[C@@H](NC(=O)[C@H](CO)NC(=O)[C@H](Cc1ccncc1)NC(=O)[C@H](CC(=O)O)NC(=O)[C@H](CO)NC(=O)[C@@H](NC(=O)[C@](C)(Cc1ccccc1F)NC(=O)[C@@H](NC(=O)CNC(=O)[C@H](CCC(=O)O)NC(=O)C(C)(C)NC(=O)[C@@H](N)Cc1ccc(O)cc1)[C@@H](C)O)[C@@H](C)O)[C@@H](C)CC)[C@@H](C)CC)C(=O)N[C@@H](CCC(=O)O)C(=O)NCC(=O)N[C@@H](CCCCNC(=O)COCCOCCNC(=O)COCCOCCNC(=O)CC[C@H](NC(=O)CCCCCCCCCCCCC(=O)O)C(=O)O)C(=O)N1CCC[C@H]1C(=O)N[C@@H](CO)C(=O)N[C@@H](CO)C(=O)NCC(=O)N[C@@H](C)C(=O)N1CCC[C@H]1C(=O)N1CCC[C@H]1C(=O)N1CCC[C@H]1C(=O)N[C@@H](CO)C(N)=O [Example 18]	> 958 nM	1.12 nM	86.9 ± 3.59%	97.1 ± 3.28%	0.0226 nM	> 9950 nM	> 9950 nM	164 nM	–	–
CC[C@H](C)[C@H](NC(=O)[C@H](CC(C)C)NC(=O)[C@](C)(Cc1ccc(O)cc1)NC(=O)[C@@H](CCC(=O)O)NC(=O)[C@@H](NC(=O)[C@H](Cc1ccccc1)NC(=O)[C@H](CCC(=O)O)NC(=O)C(C)(C)NC(=O)[C@H](CCC(N)=O)NC(=O)[C@H](C)NC(=O)[C@H](CCCCNC(=O)COCCOCCNC(=O)COCCOCCNC(=O)CC[C@H](NC(=O)CCCCCCCCCCCCC(=O)O)C(=O)O)NC(=O)[C@H](CCCN)NC(=O)[C@H](CC(=O)O)NC(=O)[C@H](CC(C)C)NC(=O)[C@](C)(Cc1ccccc1)NC(=O)[C@@H](NC(=O)[C@H](CO)NC(=O)[C@H](Cc1ccncc1)NC(=O)[C@H](CC(=O)O)NC(=O)[C@H](CO)NC(=O)[C@@H](NC(=O)[C@](C)(Cc1ccccc1)NC(=O)[C@@H](NC(=O)CNC(=O)[C@H](CCC(=O)O)NC(=O)C(C)(C)NC(=O)[C@@H](N)Cc1ccc(O)cc1)[C@@H](C)O)[C@@H](C)O)[C@@H](C)CC)[C@@H](C)CC)C(=O)N[C@@H](CCC(=O)O)C(=O)NCC(=O)NCC(=O)N[C@@H](CCCCNC(=O)COCCOCCNC(=O)COCCOCCNC(=O)CC[C@H](NC(=O)CCCCCCCCCCCCC(=O)O)C(=O)O)C(=O)N[C@@H](CO)C(=O)N[C@@H](CO)C(=O)NCC(=O)N[C@@H](C)C(=O)N1CCC[C@H]1C(=O)N1CCC[C@H]1C(=O)N1CCC[C@H]1C(=O)N[C@@H](CO)C(N)=O [Example 46]	> 966 nM	–	73.3%	89.5 ± 2.64%	–	> 9950 nM	> 9950 nM	–	117%	79.2 ± 1.23%
CC[C@H](C)[C@H](NC(=O)[C@H](CC(C)C)NC(=O)[C@](C)(Cc1ccc(O)cc1)NC(=O)[C@@H](CCC(=O)O)NC(=O)[C@@H](NC(=O)[C@H](Cc1ccccc1)NC(=O)[C@H](CCC(=O)O)NC(=O)C(C)(C)NC(=O)[C@H](CCC(N)=O)NC(=O)[C@H](C)NC(=O)[C@H](CCCCNC(=O)COCCOCCNC(=O)CC[C@H](NC(=O)COCCOCCNC(=O)CCCCCCCCCCCCC(=O)O)C(=O)O)NC(=O)[C@H](CCCN)NC(=O)[C@H](CC(=O)O)NC(=O)[C@H](CC(C)C)NC(=O)[C@](C)(CC(C)C)NC(=O)[C@@H](NC(=O)[C@H](CO)NC(=O)[C@H](Cc1ccncc1)NC(=O)[C@H](CC(=O)O)NC(=O)[C@H](CO)NC(=O)[C@@H](NC(=O)[C@](C)(Cc1ccccc1F)NC(=O)[C@@H](NC(=O)CNC(=O)[C@H](CCC(=O)O)NC(=O)C(C)(C)NC(=O)[C@@H](N)Cc1ccc(O)cc1)[C@@H](C)O)[C@@H](C)O)[C@@H](C)CC)[C@@H](C)CC)C(=O)N[C@@H](CCC(=O)O)C(=O)NCC(=O)NCC(=O)N[C@@H](CCCCNC(=O)COCCOCCNC(=O)CC[C@H](NC(=O)COCCOCCNC(=O)CCCCCCCCCCCCC(=O)O)C(=O)O)C(=O)N[C@@H](CO)C(=O)N[C@@H](CO)C(=O)NCC(=O)N[C@@H](C)C(=O)N1CCC[C@H]1C(=O)N1CCC[C@H]1C(=O)N1CCC[C@H]1C(=O)N[C@@H](CO)C(N)=O [Example 43]	> 957 nM	0.375 nM	–	–	0.0123 nM	> 9950 nM	> 9950 nM	35.6 nM	98.7%	–
